Source: US5594009A, “Fused pyrrolocarbazoles” (priority 1995, dated 1997)
Values belong to the compound of their own block, whether it stands above or below them.

Legend:
[1] = tested on: choline acetyltransferase (ChAT) activity in dissociated rat embryonic spinal cord culture; experiment: Spinal Cord ChAT Activity Assay; assay type: cell-based; conditions: ChAT measured after 48 hours
[2] = tested on: chick DRG neurons; experiment: DRG Neuron Survival Assay (calcein AM); assay type: cell-based; conditions: Gallus gallus, DRG neuron, 48 hours, read-out: Neuronal Survival (% of Control)
Procedure: Fused pyrrolocarbazoles promoted dorsal root ganglion (DRG) neuronal survival in cultures of chick DRG neurons. Cell survival was measured by uptake of calcein AM, an analog of the viable dye, fluorescein diacetate. Calcein is taken up by viable cells and cleaved intracellularly to fluorescent salts which are retained by intact membranes of viable cells. Microscopic counts of viable neurons correlate directly with relative fluorescence values obtained with the fluorimetric viability assay. This method thus provides a reliable and quantitive measurement of cell survival in the total cell population of a given culture (Bozyczko-Coyne et al., J. Neur. Meth. 50:205-216, 1993).
Methods: Dorsal root ganglia were dissected from embryonic age day 9 chick embryos and dissociated cells prepared by subsequent Dispase (neutral protease, Collaborative Research) dissociation. Neurons were seeded at low density (3×10^4 cells/cm^2) into 96 well poly-L-ornithine and laminin coated plates. Cells were cultured for 48 hours in serum-free N2 medium (Bottenstein and Sato, 1979) at 37° C. in a humidified atmosphere, 5% CO2 /95% air. Cell survival was assessed at 48 hours using the viable fluorimetric assay described above.

[3] = target: trkA tyrosine kinase (Homo sapiens, UniProt P04629); experiment: trkA Tyrosine Kinase Activity Inhibition Assay (ELISA); assay type: biochemical; conditions: 16 μM ATP, 37° C., 15 min; read-out: INHIBITION OF trkA KINASE IC50
trkA tyrosine kinase, sequence (P04629 33-796): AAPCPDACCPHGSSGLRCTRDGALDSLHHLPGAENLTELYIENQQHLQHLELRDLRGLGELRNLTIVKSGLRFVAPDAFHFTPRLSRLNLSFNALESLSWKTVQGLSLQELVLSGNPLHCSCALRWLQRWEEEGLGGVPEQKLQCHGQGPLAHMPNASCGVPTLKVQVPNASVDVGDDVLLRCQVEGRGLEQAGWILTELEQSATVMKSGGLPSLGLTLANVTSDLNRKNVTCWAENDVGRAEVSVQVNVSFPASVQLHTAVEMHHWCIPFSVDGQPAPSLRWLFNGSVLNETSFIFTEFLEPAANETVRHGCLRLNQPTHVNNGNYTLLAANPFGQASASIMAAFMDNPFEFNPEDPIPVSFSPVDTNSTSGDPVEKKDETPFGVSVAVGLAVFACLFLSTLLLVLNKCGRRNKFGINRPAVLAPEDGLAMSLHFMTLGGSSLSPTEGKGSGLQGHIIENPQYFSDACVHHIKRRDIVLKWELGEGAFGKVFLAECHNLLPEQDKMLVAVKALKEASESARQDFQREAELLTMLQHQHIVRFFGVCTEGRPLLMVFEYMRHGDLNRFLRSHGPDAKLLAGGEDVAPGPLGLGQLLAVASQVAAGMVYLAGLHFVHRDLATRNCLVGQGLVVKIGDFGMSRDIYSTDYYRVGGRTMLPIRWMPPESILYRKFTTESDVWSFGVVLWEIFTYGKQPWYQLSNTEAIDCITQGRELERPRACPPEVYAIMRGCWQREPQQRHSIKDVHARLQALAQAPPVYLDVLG
Procedure: These compounds were then tested for the ability to inhibit substrate phosphorylation by the trkA tyrosine kinase.
Plates were washed three times with TBST, followed by two washes with TBS (TBST sans Tween-20). Fused pyrrolocarbazoles were then added at various concentrations to a reaction mixture (50 mM HEPES, pH 7.4, 5 mM MnCl2, 5 mM MgCl2, 140 mM NaCl, 16 μM ATP, and 15 ng trkA in a total volume of 1001 μL.). As a negative control, 100 mM EDTA was included in the reaction solution. The plates were then incubated at 37° C. for 15 min. The detection antibody, monoclonal anti-phosphotyrosine antibody (UBI), was added at a dilution of 1:2000 in TBST, and incubated for 1 hour at 37° C. Plates were then washed three times with TBST, followed by a 1 hour incubation at 37° C. with alkaline phosphatase-labeled goat anti-mouse IgG (1:2000 in TBST (Bio-Rad)). After washing three times with TBST followed by two washes with TBS, a colored product was produced by using NADPH as substrate for alkaline phosphatase, and the coupled reactions of diaphorase and alcohol dehydrogenase (GIBCO-BRL ELISA amplification system). The colored product was read at 490 nm in a microplate reader (Biotek).

[4] = tested on: indoleamine 2,3-dioxygenase (IDO) mRNA in THP-1 cells; experiment: Inhibition of Induction By IFNγ of IDO mRNA; assay type: cell-based; conditions: Homo sapiens, IDO/GAPD mRNA ratio, 48 hours, read-out: IDO mRNA, Phosphorimager units, % of IFNγ-treated cells; for mrna remaining at 0.4 µM: compound 400 nM, IFNγ 400 units/ml
Procedure: Fused pyrrolocarbazoles in accordance with our invention were tested for their ability to inhibit the induction by IFNγ of indoleamine 2,3-dioxygenase (IDO) mRNA in THP-1 cells, a human monocyte cell line.
Cell Culture: THP-1 cells (American Type Culture Collection, Rockville, Md.), a human monocytic leukemia cell line, were grown in RPMI 1640 medium (Mediatech, Herndon Valley, Va.) with 50 μM 2-mercaptoethanol and 10% fetal bovine serum. Cells were plated in T75 culture flasks, at 4×10^4 cells/cm^2 in 10 ml of medium, and were immediately treated with fused pyrrolocarbazoles at various concentrations. After 30 minutes recombinant (E. coli) IFNγ (Boehringer Mannheim Corporation,Indianapolis, Ind.) was added at 200-400 units/ml. Cells were incubated (37° C., 5% CO2 /95% Air) for 48 hours after treatment.
RNA Isolation: Cells were pelleted by centrifugation (50× g, 7 min.) and medium was decanted. The cells were then washed two times with phosphate buffered saline pH 7.2 (PBS) (Mediatech, Herndon Valley, Va.). The washed cell pellet was lysed in 2 ml RNAzol B (Tel-Test, Inc., Friendswood, Tex.). RNA was isolated by chloroform extraction, precipitated, and washed following the "RNAzol B isolation of RNA" protocol accompanying this product. RNA was then solubilized in H2 O, and the concentration and purity were determined by reading the absorbance at A260 nm and A280 nm. Finally, the RNA was reprecipitated in ethanol, overnight at -20° C.
cDNA Probes: Indoleamine 2,3-dioxygenase (IDO) cDNA was received from Sohan L. Gupta, Ph. D. (Hipple Cancer Research Center, Dayton, Ohio) (see Da., W. & Gupta, S. L. 168 Biochem. Biophys. Res. Commun. 1, 1990 and Hassanain, H. H. et al. 268 J. Biol. Chem. 5077, 1993). Glyceraldehyde-3-phosphate dehydrogenase (GAPD) cDNA was obtained through American Type Culture Collection (Rockville, Md.). These cDNA's were produced and purified using standard methods (see, Sambrook, Fritsch, Maniatis (1989) Molecular Cloning a Laboratory Manual/Second Edition 1, 1.21-1.24, 1.74-1.81, hereinafter in this Example, "Maniatis a") using Qiagen plasmid purification kits (Qiagen Inc., Chatsworth, Calif.). DNA concentration and purity were determined by absorbance at 280 nm and 260 nm. Specific DNA inserts were cut out by standard methods using restriction enzymes, and subsequently separated on agarose gels as in Maniatis (see, Sambrook, Fritsch, Maniatis (1989) Molecular Cloning a Laboratory Manual/Second Edition 1, 6.9-6.15, hereinafter in this Example, "Maniatis b"). cDNA probes were further purified for [^32 P] labeling using the Geneclean II DNA purification kit (BIO 101, Inc., La Jolla, Calif.). Probes were labeled with dCTP-α-^32 P (Amersham Corp., Arlington Heights, Ill.) by random primer labeling, using the Prime-a-GeneLabeling System (Promega Corp., Madison, Wis.).
Analysis and quantification of mRNA: IDO mRNA was detected by Northern blot analysis (see Maniatis a, p. 7.39-7.51) using standard methods. […] Quantification of IDO mRNA was carried out using a phosphorimager (Molecular Dynamics) in which density (i.e., amount of RNA) is expressed as relative phosphorimager units. […] GAPD mRNA measurement by phosphorimager quantification of Northern blots serves as a means to normalize for potential sample to sample differences in the amount of total RNA loaded on gels. […]

[5] = tested on: lumbar motoneurons of chick embryos; experiment: Inhibition of Motoneuron Death In Ovo; assay type: in vivo; conditions: for Number of motoneurons mean ± SD / % of motoneurons rescued versus control: E6-E9; for Number of motoneurons mean ± SD: one side of spinal cord
Procedure: The samples (50 ul) were applied to the vascularized chorioallantoic membrane through a window in the egg shell as previously described (Oppenheim et al., 1988). Embryos were sacrificed on E10 and spinal cords were removed, fixed in Carnoy's solution (10% acetic acid, 60% ethanol, 30% chloroform), embedded in paraffin, sectioned at 8 um, and stained with thionin as described previously (Oppenheim et al., 1988). Motoneurons (identified by morphology and position) were counted by an individual blind to the treatment conditions in every tenth section according to previously established criteria (Oppenheim et al., 1982, Oppenheim, 1986).

[6] = target: protein kinase C; experiment: PKC Activity Inhibition Assay; assay type: biochemical
Procedure: Fused pyrrolocarbazoles inhibited the activity of protein kinase C (Table VI). The protein kinase C assay has been disclosed (Murakata et al., U.S. Pat. No. 4,923,986; Kikkawa et al., J. Biol. Chem. 257:13341-13348 (1982)). The assay was performed with several concentrations of fused pyrrolocarbazoles. The concentration at which protein kinase C was 50% inhibited (IC50) was determined.

[7] = tested on: ChAT activity of basal forebrain cultures; experiment: Basal Forebrain ChAT Activity Assay; assay type: cell-based, rat; conditions: Rattus norvegicus, 120 h, read-out: ChAT Activity (% of Control)
Procedure: Fused pyrrolocarbazoles were tested for the ability to increase ChAT activity of basal forebrain cultures.
Methods: The basal forebrain was dissected from rat embryos (day 17 or 18 embryos) and the cells were dissociated with a neutral protease (Dispase™, Collaborative Research). Neurons were plated at a density of 5×10^4 cells/well (1.5×10^5 cells/cm^2) in poly-1-ornithine and laminin coated plates. Cells were cultured in serum-free N2 medium containing 0.05% BSA at 37° C. in a humidified atmosphere, 5% CO2 /95% air. ChAT activity was assessed 5 days after plating by using the ChAT assay as described in Example III(A)(1).

[8] = tested on: AT-2 cells; experiment: Inhibition of Growth of Prostate Cancer Cell Line (MTS assay); assay type: cell-based; conditions: 72 h; 3 days, MTS; read-out: AT-2 cell growth IC50
Procedure: AT-2 cells are a prostate cancer cell sub-line derived from the Dunning H tumor, graciously provided to us by Dr. John Isaacs (John Hopkins, M. D.). Unlike the Dunning H tumor cells, AT-2 cells can be grown in vitro.
Methods: At-2 cells ([…]) were plated on tissue culture plastic in 96-well plates in the presence of RPMI-1640 medium containing 10% fetal calf serum, 250 nM dexamethasone, 2 mM glutamine, 1 mM sodium pyruvate, and penicillin/streptomycin antibiotics. The next day, compounds were added at 4 concentrations (10, 1, 0.1, 0.01 μM) to determine the approximate IC50 range. Cultures were assayed 3 days later for cell number using the MTS [(3-(4,5-dimethylthiazol-2-yl)-5-(3-carboxymethoxyphenyl)-2-(4-sulfophenyl)-2H-tetrazolium, inner salt)] assay. The MTS assay (purchased as a kit from Promega) measures the formation of an aqueous soluble formazan (detected by a plate reader at 490nm) produced by the bioreduction of a tetrazolium compound (MTS) in metabolically active cells via mitochondrial succinate dehydrogenase. After determining linearity of the substrate incubation time over a range of cell plating densities, the amount of product measured is directly proportional to cell number. MTS (333 ug/ml) and 25 μM phenazine methosulfate are mixed and added directly to the culture medium, and incubated at 37° C. in the 5% CO2 /95% air incubator for 0.5-4 h. Absorbance of the product at 490 nm is read on the BIO-TEK plate reader. Background values were obtained from wells containing culture medium with substrate solution, but no cells. In addition, values were also obtained from wells containing cells plated at day 0 and assayed on the day compound was added (day 1) in order to determine the number of cells at the time compound was added. After the initial dose-finding experiment was completed, subsequent experiments were set up so that there were 3 or more concentrations near the predicted IC50.

SMILES: O=C1NCc2c1c1c(c3[nH]c4ccc(C=Cc5ccccn5)cc4c23)Cc2ccccc2-1 [Compound I-32, 3-(2-Pyridinylethenyl)-5H,6H,12H,13H-indeno[2,3-a]pyrrolo[3,4-c]carbazole-7(7H)-one]
- Spinal Cord ChAT Activity, % of Control, untreated cultures [1]: 288 % of Control
- viability at 0.1 µM ([2]; 100 nM): 173%
- viability at 0.25 µM ([2]; 250 nM): 164%
- viability at 0.5 µM ([2]; 500 nM): 151%
- IC50 [3]: > 1000 nM
- mrna remaining at 0.4 µM [4]: 70%
- Number of motoneurons mean ± SD ([5]; 0.06 ug/egg daily): 9657 ± 529
- % of motoneurons rescued versus control ([5]; 0.3 ug/egg daily): 8%
- Number of motoneurons mean ± SD ([5]; 0.3 ug/egg daily): 10215 ± 481
- % of motoneurons rescued versus control ([5]; 0.6 ug/egg daily): 31%
- Number of motoneurons mean ± SD ([5]; 0.6 ug/egg daily): 12357 ± 499
- increase in motoneuron survival in treated vs. control embryos, maximal effect ([5]; 0.6 ug/egg, vehicle-treated control): 31%
- % of motoneurons rescued versus control ([5]; 1.2 ug/egg daily): 24%
- Number of motoneurons mean ± SD ([5]; 1.2 ug/egg daily): 11743 ± 1497
- dose at which the maximal effect was achieved ([5]; daily dose): 0.6 ug/egg

- IC50 [6]: 4500 nM
SMILES: O=C1NCc2c1c1c(c3[nH]c4ccc(Br)cc4c23)Cc2ccccc2-1 [Compound I-9, 3-Bromo-5H, 6H, 12H, 13H-indeno[2,3-a]pyrrolo[3,4-c]carbazole-7(7H)one]
- Spinal Cord ChAT Activity, % of Control, untreated cultures [1]: 185 % of Control
- mrna remaining at 0.4 µM [4]: 60%

- IC50 [6]: 40 nM
- IC50 [3]: 18.4 nM
- IC50 [8]: 3260 nM
SMILES: O=C1NCc2c1c1c(c3c2c2ccccc2n3CCO)Cc2ccccc2-1 [Compound I-29, 13-(2-Hydroxyethyl)-5H,6H,12H,13H-indeno[2,3-a]pyrrolo[3,4-c]carbazole-7(7H)one]
- Spinal Cord ChAT Activity, % of Control, untreated cultures [1]: 154 % of Control
- activity at 0.1 µM ([7]; 100 nM): 140%
- activity at 0.25 µM ([7]; 250 nM): 189%
- activity at 0.5 µM ([7]; 500 nM): 194%
- activity at 1 µM ([7]; 1000 nM): 210%
- mrna remaining at 0.2 µM ([4]; compound 200 nM, IFNγ 200 units/ml): 57%

- IC50 [6]: 450 nM
SMILES: O=C1NCc2c3c(c4[nH]c5ccc(Br)cc5c4c21)Cc1ccccc1-3 [Compound I-11, 3-Bromo-6H, 7H, 12H, 13H -indeno[2,3-a]pyrrolo[3,4-carbazole-5(5H)one]
- Spinal Cord ChAT Activity, % of Control, untreated cultures [1]: 188 % of Control
- mrna remaining at 0.4 µM [4]: 49%
